Values quoted from earlier work as cited in patent publication US20110321180A1, “COMPOSITIONS AND METHODS TO GENERATE PILOSEBACEOUS UNITS” (University of Southern California, priority 2008, published 2011).

Legend:
[1] = in published reports
[2] = DMSO

| Molecule | toxicity [1] | solubility [2] | size of hair germs (hair germs) |
| --- | --- | --- | --- |
| c1cc(-c2cnn3cc(-c4ccc(OCCN5CCCCC5)cc4)cnc23)ccn1 [Dorsomorphin] | low toxicity | soluble in DMSO | – |
| noggin: BMP antagonist protein, UniProt: Q13253 (protein, UniProt Q13253 28-232, looked up) Noggin: QHYLHIRPAPSDNLPLVDLIEHPDPIFDPKEKDLNETLLRSLLGGHYDPGFMATSPPEDRPGGGGGAAGGAEDLAELDQLLRQRPSGAMPSEIKGLEFSEGLAQGKKQRLSKKLRRKLQMWLWSQTFCPVLYAWNDLGSRFWPRYVKVGSCFSKRSCSVPEGMVCKPSKSVHLTVLRWRCQRRGGQRCGWIPIQYPIISECKCSC | – | – | makes hair germs bigger |
